Measured values taken from patent US9108936B2, “Substituted 4-aminobenzamides as KCNQ2/3 modulators” (GRUENENTHAL GMBH, priority 2012, dated 2015).

Biological target: T1, KCNQ2/3 channels (Homo sapiens, UniProt O43525+O43526)
T1 construct: expressed in transfected cells; host or cells: CHO-K1
Assay: Fluorescence assay using a voltage sensitive dye (fluorimetry)
Type: cell-based
Conditions: CHO-K1 cells expressing KCNQ2/3; for Emax: plateau effect relative to saturated Retigabine (50 μM), read-out: Fluorimetry % efficacy (retigabine = 100%); for EC50: voltage-sensitive dye, KCl depolarization, read-out: Fluorimetry EC50/IC50
Description: Method I. Fluorescence Assay Using a Voltage Sensitive Dye (Fluorimetry)
The modulation of the KCNQ opening state (and consequently the voltage potential of a cell) by test compounds such as compounds according to the present invention results in an increased or reduced amount of a voltage-sensitive dye in the cytoplasm of the cells tested. These voltage-sensitive dyes are fluorescent dyes and, therefore, are forming the link between cell potential influenced by KCNQ modulation and fluorescence intensity. A KCNQ agonist leads to an opening of the channel, potassium and dye efflux, a following hyperpolarization and a reduction of the inner fluorescence intensity in a kinetic protocol. If applying an ion jump by KCl depolarization, KCNQ agonists increase the ΔF/F value. An antagonist performs vice versa, respectively.
The ‘fluorimetry EC50’ is the half maximum effective concentration (EC50), where the concentration of a drug/compound induces a response halfway between the baseline and maximum plateau effect. In other words, said value represents the concentration of a compound, where 50% of its maximal effect in the fluorimetric assay is observed if the substance concentration is graphed against the corresponding ΔF/F values (for which the calculation method is described below). Therefore, ‘fluorimetry EC50’ is a measure for the compound potency. The compound efficacy is mirrored by ‘fluorimetry % efficacy’ (‘% Efficacy’) and refers to the maximum response achievable by the test compound, i.e. the plateau effect. This drug's plateau effect is related to the plateau effect, which can be achieved by applying a saturated concentration of a reference compound, e.g. Retigabine (50 μM), in independent wells of the same experimental plate or series. A compound showing 100% efficacy is as efficacious as the reference compound (Retigabine) with a saturated concentration.
[…] CHO-K1 cells expressing KCNQ2/3 channels are cultivated adherently at 37° C., 5% CO2 and 95% humidity in cell culture bottles (e.g. 80 cm^2 TC flasks, Nunc) with DMEM-high glucose (Sigma Aldrich, D7777) including 10% FCS (PAN Biotech, e.g. 3302-P270521) or alternatively MEM Alpha Medium (1×, liquid, Invitrogen, #22571), 10% fetal calf serum (FCS) (Invitrogen, #10270-106, heat-inactivated) and the necessary selection antibiotics.
Before being sown out for the measurements, the cells are washed with 1× DPBS buffer Ca^2+/Mg^2+-free (e.g. Invitrogen, #14190-094) and detached from the bottom of the culture vessel by using Accutase (PAA Laboratories, #L11-007) (incubation with Accutase for 15 min at 37° C.). The cell number is determined using a CASY™ cell counter (TCC, Schärfe System). Depending on the optimal density for each individual cell line, 20,000-30,000 cells/well/100 μl are seeded onto 96-well Corning™ CellBIND™ assay plates (Flat Clear Bottom Black Polystyrene Microplates, #3340). Freshly seeded cells are then left to settle for one hour at room temperature, followed by incubation for 24 hours at 37° C., 5% CO2 and 95% humidity.
The voltage-sensitive fluorescent dye from the Membrane Potential Assay Kit (Red™ Bulk format part R8123 for FLIPR, MDS Analytical Technologies™) is prepared by dissolving the contents of one vessel Membrane Potential Assay Kit Red Component A in 200 ml of extracellular buffer (ES buffer, 120 mM NaCl, 1 mM KCl, 10 mM HEPES, 2 mM CaCl2, 2 mM MgCl2, 10 mM glucose; pH 7.4). After removal of the nutrient medium, the cells are washed once with 200 μl of ES buffer, then loaded for 45 min at room temperature in 100 μl of dye solution in the dark.
Fluorescence measurements are carried out in a BMG Labtech FLUOstar™, BMG Labtech NOVOstar™ or BMG Labtech POLARstar™ instrument (525 nm excitation, 560 nm emission, Bottom Read mode). […]

| Compound | Emax [%] | EC50 [µM] |
| --- | --- | --- |
| Cc1cc(N2CCOCC2)cc(N2CC[C@@H](F)C2)c1C(=O)NCc1ccc(Cl)cc1 [Example 38, N-[(4-Chlorophenyl)-methyl]-2-[(3R)-3-fluoro-pyrrolidin-1-yl]-6-methyl-4-morpholin-4-yl-benzamide] | 167 | 0.748 |
| CCS(=O)(=O)c1cc(N2CCOCC2)cc(C)c1C(=O)NCCCC(C)(C)C [Example 9, N-(4,4-Dimethyl-pentyl)-2-(ethylsulfonyl)-6-methyl-4-morpholin-4-yl-benzamide] | 65 | 9.3 |
| Cc1cc(N2CCOCC2)cc(C2CC2)c1C(=O)NCc1ccc(C(F)(F)F)cn1 [Example 36, 2-Cyclopropyl-6-methyl-4-morpholin-4-yl-N-[[5-(trifluoromethyl)-pyridin-2-yl]-methyl]-benzamide] | 89 | 5.26 |
| CCSc1cc(N2CCOC[C@H]2C)cc(C)c1C(=O)NCCCC(C)(C)C [Example 5, N-(4,4-Dimethyl-pentyl)-2-ethylsulfanyl-6-methyl-4-[(3R)-3-methyl-morpholin-4-yl]-benzamide] | 246 | 0.108 |
| Cc1cc(N2CCOCC2)cc(C2CC2)c1C(=O)NCc1ccc(OC(F)(F)F)cc1 [Example 25, 2-Cyclopropyl-6-methyl-4-morpholin-4-yl-N-[[4-(trifluoromethyloxy)-phenyl]-methyl]-benzamide] | 144 | 0.355 |
| Cc1cc(N2CCOCC2)cc(C(C)C)c1C(=O)NCC[C@@H](O)C(C)(C)C [Example 30, N-[(3R)-3-Hydroxy-4,4-dimethyl-pentyl]-2-isopropyl-6-methyl-4-morpholin-4-yl-benzamide] | 212 | 3.1 |
| Cc1cc(N2CCOCC2)cc(C2CCOC2)c1C(=O)NCc1ccc(Cl)cc1 (centres unmarked) [Example 37, N-[(4-Chlorophenyl)-methyl]-2-methyl-4-morpholin-4-yl-6-tetrahydro-furan-3-yl-benzamide] | 166 | 1.69 |
| Cc1cc(N2CCOCC2)cc(C(C)C)c1C(=O)NCC[C@H](O)C(C)(C)C [Example 31, N-[(3S)-3-Hydroxy-4,4-dimethyl-pentyl]-2-isopropyl-6-methyl-4-morpholin-4-yl-benzamide] | 230 | 0.416 |
| Cc1cc(N2CCOCC2)cc(C2CC2)c1C(=O)NCC[C@@H](O)C(C)(C)C [Example 28, 2-Cyclopropyl-N-[(3R)-3-hydroxy-4,4-dimethyl-pentyl]-6-methyl-4-morpholin-4-yl-benzamide] | 155 | 4.66 |
| Cc1cc(N2CCOCC2)cc(C(C)C)c1C(=O)NCc1ccc(Cl)cn1 [Example 34, N-[(5-Chloro-pyridin-2-yl)-methyl]-2-isopropyl-6-methyl-4-morpholin-4-yl-benzamide] | 156 | 3.61 |
| Cc1cc(N2CCOCC2)cc(C2CC2)c1C(=O)NCC[C@H](O)C(C)(C)C [Example 29, 2-Cyclopropyl-N-[(3S)-3-hydroxy-4,4-dimethyl-pentyl]-6-methyl-4-morpholin-4-yl-benzamide] | 195 | 1.81 |
| CCc1cc(N2CCOCC2)cc(CC)c1C(=O)NCc1ccc(Cl)cc1 [Example 41, N-[(4-Chlorophenyl)-methyl]-2,6-diethyl-4-morpholin-4-yl-benzamide] | 181 | 0.506 |
| Cc1cc(N2CCOCC2)cc(C(C)C)c1C(=O)NCc1ccc(C(F)(F)F)cn1 [Example 35, 2-Isopropyl-6-methyl-4-morpholin-4-yl-N-[[5-(trifluoromethyl)-pyridin-2-yl]-methyl]-benzamide] | 134 | 3.07 |
| Cc1cc(N2CCOCC2)cc(C(C)C)c1C(=O)NCC(O)CC(C)(C)C (centres unmarked) [Example 33, N-(2-Hydroxy-4,4-dimethyl-pentyl)-2-isopropyl-6-methyl-4-morpholin-4-yl-benzamide] | 216 | 1.37 |
| Cc1cc(N2CCOCC2)cc(C2CC2)c1C(=O)NCc1ccc(C(F)(F)F)cc1 [Example 24, 2-Cyclopropyl-6-methyl-4-morpholin-4-yl-N-[[4-(trifluoromethyl)-phenyl]-methyl]-benzamide] | 134 | 0.693 |

Results, then the molecule that gave them:

| Emax [%] | EC50 [µM] | Compound |
| --- | --- | --- |
| 163 | 1.48 | CCSc1cc(N2CCOCC2)cc(C)c1C(=O)NCc1cccc(F)c1 [Example 1, 2-Ethylsulfanyl-N-[(3-fluorophenyl)-methyl]-6-methyl-4-morpholin-4-yl-benzamide] |
| 144 | 0.708 | Cc1cc(N2CCOCC2)cc(C(F)F)c1C(=O)NCc1ccc(Cl)cc1 [Example 20, N-[(4-Chlorophenyl)-methyl]-2-(difluoro-methyl)-6-methyl-4-morpholin-4-yl-benzamide] |
| 88 | 5.56 | CCS(=O)(=O)c1cc(N2CCOCC2)cc(C)c1C(=O)NCc1ccc(Cl)cc1 [Example 8, N-[(4-Chlorophenyl)-methyl]-2-(ethylsulfonyl)-6-methyl-4-morpholin-4-yl-benzamide] |
| 156 | 0.453 | Cc1cc(N2CCCC2)cc(C(F)(F)F)c1C(=O)NCc1cccc(F)c1 [Example 26, N-[(3-Fluorophenyl)-methyl]-2-methyl-4-pyrrolidin-1-yl-6-(trifluoromethyl)-benzamide] |
| 196 | 0.217 | CC(C)c1cc(N2CCOCC2)cc(F)c1C(=O)NCc1ccc(Cl)cc1 [Example 39, N-[(4-Chlorophenyl)-methyl]-2-fluoro-6-isopropyl-4-morpholin-4-yl-benzamide] |
| 141 | 1.35 | CCOc1cc(N2CCOCC2)cc(C)c1C(=O)NCc1ccc(Cl)cc1 [Example 11, N-[(4-Chlorophenyl)-methyl]-2-ethoxy-6-methyl-4-morpholin-4-yl-benzamide] |
| 161 | 0.139 | Cc1cc(N2CCOCC2)cc(C(C)C)c1C(=O)NCc1ccc(OC(F)(F)F)cc1 [Example 23, 2-Isopropyl-6-methyl-4-morpholin-4-yl-N-[[4-(trifluoromethyloxy)-phenyl]-methyl]-benzamide] |
| 220 | 0.335 | CCSc1cc(N2CCOCC2)cc(C)c1C(=O)NCCCC(C)(C)C [Example 3, N-(4,4-Dimethyl-pentyl)-2-ethylsulfanyl-6-methyl-4-morpholin-4-yl-benzamide] |
| 169 | 0.369 | CCc1cc(N2CCOCC2)cc(C)c1C(=O)NCc1ccc(Cl)cc1 [Example 12, N-[(4-Chlorophenyl)-methyl]-2-ethyl-6-methyl-4-morpholin-4-yl-benzamide] |
| 183 | 0.217 | CCCc1cc(N2CCOCC2)cc(C)c1C(=O)NCc1ccc(Cl)cc1 [Example 13, N-[(4-Chlorophenyl)-methyl]-2-methyl-4-morpholin-4-yl-6-propyl-benzamide] |
| 197 | 0.673 | Cc1cc(N2CCCCC2)cc(C(F)(F)F)c1C(=O)NCc1cccc(F)c1 [Example 27, N-[(3-Fluorophenyl)-methyl]-2-methyl-4-piperidin-1-yl-6-(trifluoromethyl)-benzamide] |
| 170 | 0.552 | Cc1cc(N2CCOCC2)cc(C2CC2)c1C(=O)NCc1ccc(Cl)cc1 [Example 15, N-[(4-Chlorophenyl)-methyl]-2-cyclopropyl-6-methyl-4-morpholin-4-yl-benzamide] |
| 118 | 0.626 | C=C(C)c1cc(N2CCOCC2)cc(C)c1C(=O)NCc1ccc(C(F)(F)F)cc1 [Example 21, 2-Isopropenyl-6-methyl-4-morpholin-4-yl-N-[[4-(trifluoromethyl)-phenyl]-methyl]-benzamide] |
